Experimental data reported in PubChem BioAssay (NCI).
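Compound exposure: 48 hours, 5 concentrations, 96-well plates. At the GI50, growth is halved. At the TGI there is no net growth.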

How the values were obtained:
Assay in all cases: DTP human tumour cell line panel, 48 h
[1] = test system: COLO 205 colon
[2] = test system: HCT-15 colon
[3] = test system: SK-MEL-28 melanoma
[4] = test system: NCI/ADR-RES ovarian
[5] = test system: M14 melanoma
[6] = test system: HOP-92 NSCLC
[7] = test system: SF-268 CNS
[8] = test system: SF-295 CNS
[9] = test system: SW-620 colon
[10] = test system: A549 NSCLC

Structure (SMILES) | TGI [1] [µM] | TGI [2] [µM] | TGI [3] [µM] | TGI [4] [µM] | TGI [5] [µM] | TGI [6] [µM] | TGI [7] [µM] | TGI [8] [µM] | TGI [9] [µM] | TGI [10] [µM] | GI50 [1] [µM] | GI50 [2] [µM] | GI50 [3] [µM] | GI50 [4] [µM] | GI50 [5] [µM] | GI50 [6] [µM] | GI50 [7] [µM] | GI50 [8] [µM] | GI50 [9] [µM] | GI50 [10] [µM]
COc1ccc2c(=O)c3ccoc3n(CC=C(C)C)c2c1 | > 100 | > 100 | > 100 | 76.4 | > 100 | > 63.7 | > 100 | > 100 | > 100 | > 100 |  |  |  |  |  |  |  |  |  | 
COC1CC2CCC(C)C(O)(O2)C(=O)C(=O)N2CCCCC2C(=O)OC(C(C)CC2CCC(O)C(OC)C2)CC(=O)C(C)C=C(C)C(O)C(OC)C(=O)C(C)CC(C)/C=C/C=C/C=C1C (stereo not given) | 12.9 | 14.7 | 11.2 | 30.3 | 13.3 | 7.48 | 11.5 | 7.76 | 14 | 41.6 | 5.64 | 0.0813 | 3.23 | 1.86 | 5.41 | 0.0107 | 3.82 | < 0.005 | 5.39 | 0.0784
CC[C@H](Nc1nc(NCc2cnc(C)cc2C)c2ncn(C(C)C)c2n1)[C@@H](C)O | 0.64 | 4.89 | 6.8 | > 31 | 4.31 | 2.27 | 2.41 |  | > 21.9 | > 100 | 0.247 | 0.349 | 0.374 | 1.97 | 0.318 | 0.279 | 0.268 | 0.298 | 0.235 | 0.353
CCC/C(=N/N=C(N)N)c1ccc(NC(=O)c2cc3cc(OC)ccc3[nH]2)cc1 | 30 | 36.1 | 40.2 | > 100 |  | 12.1 | 29.9 | 25.8 | 20.1 | 38.1 | 9.77 | 14.5 | 10.5 | 79.7 |  | 1.89 | 5.22 | 10.5 | 3.6 | 13.1
CC1=C2C[C@H]3[C@@H](CC[C@@H]4CC(NS(C)(=O)=O)CC[C@@]43C)[C@@H]2CC[C@@]2(C1)O[C@@H]1C[C@H](C)CN[C@H]1[C@H]2C (stereo not given in full) | 4.43 | 21.4 | 11.3 | 28.3 | 22.6 | 12.7 | 26.6 | 26.1 | 28.9 | 17.5 | 2.25 | 5.9 | 4.81 | 12.2 | 7.92 | 1.15 | 12.1 | 12.5 | 13.8 | 4.26
Cc1ccc(-n2c3c(c4c(CN(C)C)c(O)ccc42)CCc2ccccc2C3=O)cc1 | > 100 | 35.8 |  | 34.7 | 30.2 | 40 | 50.5 | 35.9 | 33.7 | 33.8 | > 100 | 18.3 |  | 14.5 | 16.1 | 17.5 | 19.8 | 18.3 | 15.1 | 16.7
O=c1c2ccccc2n(C[C@H]2CO2)c2ccccc12 | 4.15 | 5.27 | 5.76 | 6.25 | 3.9 | 5.27 | 5.97 | 9.44 | 12.7 | 7.28 | 1.49 | 1.68 | 2.4 | 1.7 | 1.67 | 2.03 | 1.62 | 2.91 | 0.828 | 2.45
C/C(=N/Nc1nc2ccccc2n1C)c1ccccn1 | 10.9 | 27.9 | 29.1 | 0.555 | 0.285 | 20 | > 35.6 | 4.97 | 21.8 | 14.5 | 0.0254 | 0.0171 | 0.256 | 0.0364 | 0.0489 | 0.261 | 0.202 | 0.28 | 0.0429 | 0.106
O=c1ccn(C2OC(CO/N=C/c3ccc(O)c(O)c3O)C(O)C2O)c(=O)[nH]1 (stereo not given) | 30.6 | 50.4 | > 100 | 49 | > 100 | > 100 | 85.6 | 24.1 | 35.9 | > 100 | 14.7 | 20.5 | > 100 | 20.5 | 39 | > 100 | 26.5 | 10.5 | 19.1 | 54.3
O=C(Nc1cccc(Cl)c1)c1ccc(NC2=C(Cl)C(=O)N(Cc3ccccc3)C2=O)cc1 | > 57 | 4.76 | 31.7 | 24.9 | 37.3 | 29.5 | 25.3 | 56.9 | 19.7 | > 100 | 22.1 | 1.98 | 14.4 | 9.53 | 16.6 | 9.09 | 8.93 | 17.7 | 7.4 | 33.3
O=C1CCCCCCCC/C=C\CC(c2ccco2)O1 (stereo not given) | > 100 | 77.9 | > 100 | > 100 | 70.5 | 94.9 | > 100 | > 100 | > 100 | > 100 | 31.6 | 23.5 | 31.1 | 34.4 | 24.6 | 17 | 30.8 | 25.4 | 41.5 | 46
O=C(CNc1ccc2c(c1)C(=O)c1ccccc1C2=O)Nc1ccc2c(c1)C(=O)c1ccccc1C2=O | 2.94 | 0.972 | 3.13 | 4.68 | 2.04 | 2.98 | 1.71 | 2.89 | 0.371 | 3.58 | 1.26 | 0.312 | 1.68 | 0.819 | 0.712 | 1.39 | 0.575 | 1.46 | 0.186 | 1.68
